Reference: publication PMC3516572, “MiniCD4 Microbicide Prevents HIV Infection of Human Mucosal Explants and Vaginal Transmission of SHIV162P3 in Cynomolgus Macaques” (PLoS Pathogens, 2012)

Experiments:
penile tissue explants = assay: MTT viability assay on penile tissue explants; type: cell-based, human; conditions: 24 h at 37°C, then MTT 2 h; M48U1 ten-fold dilutions, highest concentrations tested; nonoxynol-9 at 500 ng/mL; two independent experiments in triplicates
Text: Cervical tissue was obtained from patients undergoing planned therapeutic hysterectomy at St. George's Hospital in London, United Kingdom. Surgically resected specimens of colorectal tissue were collected at St. George's Hospital, London, United Kingdom. Penile tissue (glans) was obtained from individuals undergoing gender reassignment surgery at Charing Cross Hospital. All tissues were collected after signed informed consent was received from all patients and under protocols approved by the Local Research Ethics Committee (National Research Ethic Service NHS). On arrival in the laboratory, resected tissue was cut into 2–3 mm^3 explants comprising both epithelial and stromal tissue or muscularis mucosae, depending on the tissue, as described previously, [22].
Penile tissues and PM-1 T cells were incubated in complete RPMI medium supplemented with ten-fold dilutions of M48U1 for 24 h at 37°C. Nonoxynol-9 microbicide (tested at 500 ng/mL) was employed as cytotoxic reference. […] For tissue, after releasing the formazan in ethanol overnight, cytotoxicity was determined by measuring the optical density of the purple formazan product at 570–690 nm using Synergy HT multi-detection microplate reader. For PM-1 cells, the absorption of the formazan product was determined after lysis of the cells.

PM-1 T cells = assay: MTT viability assay on PM-1 T cells; type: cell-based; conditions: 24 h at 37°C, then MTT 2 h; M48U1 ten-fold dilutions, highest concentrations tested; nonoxynol-9 at 500 ng/mL; two independent experiments in triplicates
Procedure: Penile tissues and PM-1 T cells were incubated in complete RPMI medium supplemented with ten-fold dilutions of M48U1 for 24 h at 37°C. Nonoxynol-9 microbicide (tested at 500 ng/mL) was employed as cytotoxic reference. The compounds were removed and the tissue explants and cells were incubated for 2 h in medium containing 500 µg/mL of 3-(4,5-dimethylthiazol-2-yl)-2,5-diphenyltetrazolium bromide (MTT). For tissue, after releasing the formazan in ethanol overnight, cytotoxicity was determined by measuring the optical density of the purple formazan product at 570–690 nm using Synergy HT multi-detection microplate reader. For PM-1 cells, the absorption of the formazan product was determined after lysis of the cells.

SHIV162P3 = conditions: cited from earlier work
Text: The use of effective therapeutic drugs, such as tenofovir and more recently dapivirine tested in phase III trial, targeting post-entry events in the viral replication cycle (reverse transcription, integration and viral maturation) remains attractive, however the impact of their dual use in prevention and therapy on the potential induction of resistance evolution remains controversial. In contrast drugs that target the initial steps of viral attachment to CD4 and one of two co-receptors (CCR5 or CXCR4) triggering viral fusion with susceptible targets cells (entry inhibitors) are not widel ...

| SMILES | Cytotoxicity (MTT) in penile tissue (penile tissue explants) | Cytotoxicity (MTT) in PM-1 T-cell line (PM-1 T cells) | Protection of NHP from vaginal challenge with SHIV162P3 (SHIV162P3) |
| --- | --- | --- | --- |
| CCCCCCCCCc1ccc(OCCOCCOCCOCCOCCOCCOCCOCCOCCO)cc1 [nonoxynol-9] | significant toxicity | significant toxicity |  |
| COc1ccnc2[nH]cc(C(=O)C(=O)N3CCN(C(=O)c4ccccc4)C[C@H]3C)c12 [BMS-378806] |  |  | could protect NHP |
